Patent publication US20230114241A1, “METHODS OF TREATING EPILEPSY USING THE SAME” (Trevena, Inc., priority 2019, published 2023)

Legend:
[1] = target: T1, human sphingosine-1-phosphate receptor 1 (S1P1) (Homo sapiens, UniProt P21453); test: Inhibition of cAMP production (HTRF cAMP HiRange), S1P1 CHO-K1 cells; format: cell-based; conditions: for Emax: CHO-K1, efficacy normalized to maximum efficacy of fingolimod, read-out: hS1P1 CAMP SPAN; for EC50: inhibition of cAMP production, S1P1, read-out: hS1P1 CAMP pEC50 (converted)
Method in brief: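 Intracellular cAMP changes read by TR-FRET (HTRF HiRange, 1 h room temperature) after 30 min compound exposure at 37 °C. Cells: overnight-plated CHO-K1 stably expressing tagged human S1P1 with EA-β-arrestin2. Responses normalized to fingolimod.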
Target sequence in this assay (P21453 whole entry): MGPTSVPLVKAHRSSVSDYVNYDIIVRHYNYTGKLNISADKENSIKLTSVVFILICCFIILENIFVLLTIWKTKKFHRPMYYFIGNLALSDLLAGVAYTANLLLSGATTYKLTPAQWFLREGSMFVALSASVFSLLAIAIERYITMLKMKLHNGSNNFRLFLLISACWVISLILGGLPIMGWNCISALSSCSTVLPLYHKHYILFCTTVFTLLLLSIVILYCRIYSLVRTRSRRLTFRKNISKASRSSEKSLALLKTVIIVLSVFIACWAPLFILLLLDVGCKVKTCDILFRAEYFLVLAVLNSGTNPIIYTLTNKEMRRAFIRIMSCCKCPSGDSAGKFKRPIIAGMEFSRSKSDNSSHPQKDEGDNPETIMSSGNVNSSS

[2] = target: T1, human sphingosine-1-phosphate receptor 1 (S1P1); test: β-Arrestin2 recruitment assay (PathHunter), S1P1 CHO-K1 cells; format: cell-based; conditions: for Emax: CHO-K1, efficacy normalized to maximum efficacy of fingolimod, read-out: hS1P1 B-arrestin2 SPAN; for EC50: β-arrestin2 recruitment, S1P1, read-out: hS1P1 B-arrestin2 pEC50 (converted)
Method in brief: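 Agonist-driven β-arrestin2 recruitment measured by β-galactosidase complementation after 60 min compound exposure at 37 °C and 1 h detection at room temperature. Cells: stable CHO-K1 line expressing tagged human S1P1 with EA-β-arrestin2, plated the night before. Data expressed relative to fingolimod.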
Target sequence in this assay (P21453 whole entry): as above
Target sequence in this assay (P32121 whole entry partner): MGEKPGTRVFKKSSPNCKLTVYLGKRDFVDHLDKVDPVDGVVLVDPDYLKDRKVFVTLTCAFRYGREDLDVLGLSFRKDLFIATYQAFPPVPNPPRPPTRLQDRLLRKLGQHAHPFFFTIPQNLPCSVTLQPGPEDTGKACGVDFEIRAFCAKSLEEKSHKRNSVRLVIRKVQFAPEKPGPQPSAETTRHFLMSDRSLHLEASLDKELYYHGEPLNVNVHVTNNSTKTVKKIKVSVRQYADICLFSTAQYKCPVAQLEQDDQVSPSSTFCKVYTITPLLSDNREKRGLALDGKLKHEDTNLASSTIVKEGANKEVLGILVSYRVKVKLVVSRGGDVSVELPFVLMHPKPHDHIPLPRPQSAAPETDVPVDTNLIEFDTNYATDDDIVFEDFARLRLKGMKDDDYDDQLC

| Emax [1] [%] | EC50 [1] [µM] | Emax [2] [%] | EC50 [2] [µM] | Compound |
| --- | --- | --- | --- | --- |
| > 75 | < 0.316 | > 75 | < 10 | Cc1occc1-c1noc(-c2ccc3c(c2)nnn3C(C)C)n1 [Compound 491, 5-[3-(2-methylfuran-3-yl)-1,2,4-oxadiazol-5-yl]-1-(propan-2-yl)-1H-1,2,3-benzotriazole] |
| < 75 | > 0.316 | < 75 | < 10 | COCC1(COC)CC(=O)c2cc(-c3nc(-c4ccncc4)no3)ccc2O1 [Compound 494, 2,2-bis(methoxy-methyl)-6-[3-(pyridin-4-yl)-1,2,4-oxadiazol-5-yl]-3,4-dihydro-2H-1-benzopyran-4-one] |
| > 75 | < 0.316 | > 75 | < 10 | CCC1(CC)CC(=O)c2cc(-c3nc(-c4ccoc4)no3)ccc2O1 [Compound 495, 2,2-diethyl-6-(3-(furan-3-yl)-1,2,4-oxadiazol-5-yl)chroman-4-one] |
| > 75 | < 0.316 | < 75 | > 10 | CC(C)n1nnc2cc(-c3nc(-c4ccc5nonc5c4)no3)ccc21 [Compound 498, 5-{5-[1-(propan-2-yl)-1H-1,2,3-benzotriazol-5-yl]-1,2,4-oxadiazol-3-yl}-2,1,3-benzoxadiazole] |
| < 75 | > 0.316 | < 75 | > 10 | CCC1(CC)CC(=O)c2cc(-c3nc(-c4ccc5nonc5c4)no3)ccc2O1 [Compound 500, 6-[3-(2,1,3-benzoxadiazol-5-yl)-1,2,4-oxadiazol-5-yl]-2,2-diethyl-3,4-dihydro-2H-1-benzopyran-4-one] |
| > 75 | < 0.316 | > 75 | < 10 | CCC1(CC)CC(=O)c2cc(-c3nc(-c4cncc(N)c4)no3)ccc2O1 [Compound 502, 6-(3-(5-aminopyridin-3-yl)-1,2,4-oxadiazol-5-yl)-2,2-diethylchroman-4-one] |
| < 75 | > 0.316 | > 75 | > 10 | Cc1ccccc1-c1nc(-c2ccc3c(c2)nnn3CC(C)(C)CO)no1 [Compound 505, 2,2-dimethyl-3-(5-(5-(o-tolyl)-1,2,4-oxadiazol-3-yl)-1H-benzo[d][1,2,3]triazol-1-yl)propan-1-ol] |
| < 75 | > 0.316 | > 75 | > 10 | CCC1(CC)CC(=O)c2cc(-c3ncc(-c4cccnc4)cn3)ccc2O1 [Compound 509, 2,2-diethyl-6-(5-(pyridin-3-yl)pyrimidin-2-yl)chroman-4-one] |
| < 75 | < 0.316 | > 75 | < 10 | CCC1(CC)CC(=O)c2cc(-c3ncc(-c4ccncc4)cn3)ccc2O1 [Compound 510, 2,2-diethyl-6-(5-(pyridin-4-yl)pyrimidin-2-yl)chroman-4-one] |
| > 75 | < 0.316 | < 75 | < 10 | CCC1(CC)CC(=O)c2cc(-c3nc(-c4ccnc(NC(C)=O)c4)no3)ccc2O1 [Compound 512, N-(4-(5-(2,2-diethyl-4-oxochroman-6-yl)-1,2,4-oxadiazol-3-yl)pyridin-2-yl)acetamide] |
| > 75 | < 0.316 | > 75 | < 10 | CCC1(CC)CC(=O)c2cc(-c3nc(-c4ccnc(N)c4)no3)ccc2O1 [Compound 513, 6-(3-(2-aminopyridin-4-yl)-1,2,4-oxadiazol-5-yl)-2,2-diethyl-chroman-4-one] |
| > 75 | < 0.316 | < 75 | < 10 | CC(C)Nc1ccc(-c2nc(-c3ccc4c(c3)C(=O)NCC4)no2)cc1C#N [Compound 514, 2-(isopropylamino)-5-(3-(l-oxo-1,2,3,4-tetra-hydroisoquinolin-7-yl)-1,2,4-oxadiazol-5-yl)benzonitrile] |
| > 75 | > 0.316 | < 75 | > 10 | Cc1cn(C)nc1-c1noc(-c2ccc3c(c2)nnn3CC(C)(C)O)n1 [Compound 518, 1-{5-[3-(1,4-dimethyl-1H-pyrazol-3-yl)-1,2,4-oxadiazol-5-yl]-1H-1,2,3-benzotriazol-1-yl}-2-methylpropan-2-ol] |
| < 75 | > 0.316 | < 75 | > 10 | CCC1(CC)CC(=O)c2cc(-c3nc(-c4ccc5ncccc5c4)no3)ccc2O1 [Compound 521, 2,2-diethyl-6-(3-(quinolin-6-yl)-1,2,4-oxadiazol-5-yl)chroman-4-one] |
| > 75 | > 0.316 | > 75 | > 10 | CCC1(CC)CC(=O)c2cc(-c3nc(-c4ccc5cnccc5c4)no3)ccc2O1 [Compound 522, 2,2-diethyl-6-(3-(isoquinolin-6-yl)-1,2,4-oxadiazol-5-yl)chroman-4-one] |
| > 75 | > 0.316 | > 75 | > 10 | COc1ccc(-c2nc(-c3ccc4c(c3)nnn4CC(C)(C)CO)no2)c(C)c1 [Compound 523, 3-(5-(5-(4-methoxy-2-methylphenyl)-1,2,4-oxadiazol-3-yl)-1H-benzo[d][1,2,3]triazol-1-yl)-2,2-dimethyl-propan-1-ol] |
| > 75 | < 0.316 | < 75 | < 10 | Cc1ccsc1-c1nc(-c2ccc3c(c2)nnn3CC(C)(C)CO)no1 [Compound 524, 2,2-dimethyl-3-(5-(5-(3-methylthiophen-2-yl)-1,2,4-oxadiazol-3-yl)-1H-benzo[d] [1,2,3]triazol-1-yl)propan-1-ol] |
| > 75 | > 0.316 | > 75 | > 10 | COc1ccccc1-c1nc(-c2ccc3c(c2)nnn3CC(C)(C)CO)no1 [Compound 525, 3-(5-(5-(2-methoxy-phenyl)-1,2,4-oxadiazol-3-yl)-1H-benzo[d][1,2,3]triazol-1-yl)-2,2-dimethyl-propan-1-ol] |
| > 75 | > 0.316 | > 75 | > 10 | CC(C)(CO)Cn1nnc2cc(-c3noc(-c4ccccc4Cl)n3)ccc21 [Compound 526, 3-(5-(5-(2-chloro-phenyl)-1,2,4-oxadiazol-3-yl)-1H-benzo[d][1,2,3]triazol-1-yl)-2,2-dimethylpropan-1-ol] |
| > 75 | > 0.316 | > 75 | > 10 | CCc1ccccc1-c1nc(-c2ccc3c(c2)nnn3CC(C)(C)CO)no1 [Compound 527, 3-(5-(5-(2-ethylphenyl)-1,2,4-oxadiazol-3-yl)-1H-benzo[d][1,2,3]triazol-1-yl)-2,2-dimethylpropan-1-ol] |
| > 75 | > 0.316 | < 75 | > 10 | CC(C)(CO)Cn1nnc2cc(-c3noc(-c4ccncc4C(F)(F)F)n3)ccc21 [Compound 528, 2,2-dimethyl-3-(5-(5-(3-(trifluoro-methyl)pyridin-4-yl)-1,2,4-oxadiazol-3-yl)-1H-benzo[d][1,2,3]triazol-1-yl)propan-1-ol] |
| > 75 | > 0.316 | < 75 | < 10 | CC(C)(CO)Cn1nnc2cc(-c3noc(-c4cnccc4C(F)(F)F)n3)ccc21 [Compound 529, 2,2-dimethyl-3-(5-(5-(4-(trifluoro-methyl)pyridin-3-yl)-1,2,4-oxadiazol-3-yl)-1H-benzo[d][1,2,3]triazol-1-yl)propan-1-ol] |
| > 75 | > 0.316 | > 75 | > 10 | CCC1(CC)CC(=O)c2cc(-c3ncc(-c4ccccn4)cn3)ccc2O1 [Compound 530, 2,2-diethyl-6-(5-(pyridin-2-yl)pyrimidin-2-yl)chroman-4-one] |
| < 75 | > 0.316 | < 75 | > 10 | COc1cc(NC(C)=O)ccc1-c1noc(-c2ccc3nonc3c2)n1 [Compound 533, N-{4-[5-(2,1,3-benzoxadiazol-5-yl)-1,2,4-oxadiazol-3-yl]-3-methoxy-phenyl}acetamide] |
| < 75 | > 0.316 | < 75 | < 10 | CC1CC(=O)c2ccc(-c3nc(-c4cccnc4)no3)cc2O1 (centres unmarked) [Compound 535, 2-methyl-7-[3-(pyridin-3-yl)-1,2,4-oxadiazol-5-yl]-3,4-dihydro-2H-1-benzopyran-4-one] |
| < 75 | > 0.316 | < 75 | < 10 | CC1CC(=O)c2ccc(-c3nc(-c4ccncc4)no3)cc2O1 (centres unmarked) [Compound 536, 2-methyl-7-[3-(pyridin-4-yl)-1,2,4-oxadiazol-5-yl]-3,4-dihydro-2H-1-benzopyran-4-one] |
| > 75 | < 0.316 | < 75 | < 10 | CCC1(CC)CC(=O)c2cc(-c3nc(-c4cncc(C(N)=O)c4)no3)ccc2O1 [Compound 537, 5-(5-(2,2-diethyl-4-oxochroman-6-yl)-1,2,4-oxadiazol-3-yl)nicotinamide] |
| < 75 | < 0.316 | < 75 | < 10 | CCC1(CC)CC(=O)c2cc(-c3nc(-c4cncc(NC(C)=O)c4)no3)ccc2O1 [Compound 538, N-(5-(5-(2,2-diethyl-4-oxochroman-6-yl)-1,2,4-oxadiazol-3-yl)pyridin-3-yl)acetamide] |
| < 75 | < 0.316 | < 75 | < 10 | CCC1(CC)CC(=O)c2cc(-c3nc(-c4ccc5[nH]c(=O)[nH]c5c4)no3)ccc2O1 [Compound 539, 5-(5-(2,2-diethyl-4-oxochroman-6-yl)-1,2,4-oxadiazol-3-yl)-1H-benzo[d]imidazol-2(3H)-one] |
